SMILES strings stand for the structures.

The assay concerns the target Nurr1 receptor (Homo sapiens, UniProt P43354). Description: Transactivation of a Nurr1 responsive reporter gene in a midbrain dopaminergic cell line. It counts as cell-based. The note with it: read-out: EC50 of increase of reporter gene activity. The text has this: The activity of the agents of the invention at the Nurr1 receptor can be determined in vitro in cellular assays:
Induction of the biological activity of the Nurr1 receptor by the agents of the invention can be measured by the transactivation of a Nurr1 responsive reporter gene in a midbrain dopaminergic cell line. The assay is based on the transcription promoting effect of Nurr1. The reporter gene can be activated both by Nurr1 monomers and Nurr1/RXR heterodimers. RXR is a frequent heterodimerisation partner of nuclear receptors and it has been shown that Nurr1 can form heterodimers with RXR (Zetterström RH et al. Mol. Endocrinol. 1996; 10:1656–1666).

Chain of Nurr1 receptor (P43354 whole entry): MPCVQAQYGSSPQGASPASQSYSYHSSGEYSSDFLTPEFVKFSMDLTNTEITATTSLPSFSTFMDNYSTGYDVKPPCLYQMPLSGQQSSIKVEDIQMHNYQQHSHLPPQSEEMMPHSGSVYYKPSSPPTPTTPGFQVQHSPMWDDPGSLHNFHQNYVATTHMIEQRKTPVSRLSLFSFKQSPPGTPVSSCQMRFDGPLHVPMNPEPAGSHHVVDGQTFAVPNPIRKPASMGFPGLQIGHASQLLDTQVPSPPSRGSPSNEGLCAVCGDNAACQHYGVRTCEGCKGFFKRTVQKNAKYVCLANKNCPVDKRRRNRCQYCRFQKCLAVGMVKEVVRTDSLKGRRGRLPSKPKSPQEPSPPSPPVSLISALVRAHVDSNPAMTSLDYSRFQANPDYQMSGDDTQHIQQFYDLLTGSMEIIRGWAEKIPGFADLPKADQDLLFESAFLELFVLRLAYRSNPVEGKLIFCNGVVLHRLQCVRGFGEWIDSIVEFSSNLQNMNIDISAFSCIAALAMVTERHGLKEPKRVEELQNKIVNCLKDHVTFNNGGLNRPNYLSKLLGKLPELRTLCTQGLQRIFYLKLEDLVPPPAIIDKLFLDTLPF

In general, EC50 refers to the concentration that produces a half-maximal response. As for `COCCOCc1ccc(-c2cc3onc(-c4ccccc4)c3c(=O)n2C)cc1` [Example 7, 6-[4-(2-Methoxy-ethoxymethyl)-phenyl]-5-methyl-3-phenyl-5H-isoxazolo[4,5-c]pyridin-4-one], the EC50 is 0.04 µM.
In the case of `CN(C)Cc1ccc(-c2cc3onc(-c4ccccc4)c3c(=O)[nH]2)cc1` [Example 11, 6-(4-Dimethylaminomethyl-phenyl)-3-phenyl-5H-isoxazolo[4,5-c]pyridin-4-one], the EC50 was determined as 0.07 µM.

(Values after patent US7087756B2, “Isoxazolopyridinones” (Novartis AG, priority 2001, dated 2006).)
